# Tests used:
# Phaedon cochleariae = Phaedon cochleariae spray test; assay type: in vivo; settings: foliar, 168 h, after 7 days, larvae on Chinese cabbage leaf disks
# Method: Phaedon Cochleariae—Spray Test
# To produce a suitable preparation of active compound, 1 part by weight of active compound is mixed with the stated amount of solvents and is diluted with water, containing an emulsifier concentration of 1000 ppm, to the desired concentration. Further test concentrations are prepared by dilution with emulsifier containing water.
# Chinese cabbage (Brassica pekinensis) leaf disks are sprayed with a preparation of the active ingredient of the desired concentration. Once dry, the leaf disks are infested with mustard beetle larvae (Phaedon cochleariae).
# After 7 days mortality in % is determined. 100% means all beetle larvae have been killed and 0% means none of the beetle larvae have been killed.
# Meloidogyne incognita = Meloidogyne incognita test; assay type: in vivo; settings: 20 ppm; after 14 days; salad seedlings
# Method: Meloidogyne incognita—Test Solvent: 125.0 parts by weight of acetone To produce a suitable preparation of active compound, 1 part by weight of active compound is mixed with the stated amount of solvent, and the concentrate is diluted with water to the desired concentration. Vessels are filled with sand, a solution of the active ingredient, a suspension containing eggs and larvae of the southern root-knot nematode (Meloidogyne incognita) and salad seeds. The salad seeds germinate and the seedlings grow. Galls develop in the roots. After 14 days the nematicidal activity is determined on the basis of the percentage of gall formation. 100% means no galls were found and 0% means the number of galls found on the roots of the treated plants was equal to that in untreated control plants.
SMILES,mortality at 500 g/ha (Phaedon cochleariae) [%],nematicidal activity (gall formation) (Meloidogyne incognita) [%]
CC(c1ncnn1-c1ccc(C#N)cn1)N(CC1CC1)C(=O)c1cc(Cl)cc(C(F)(F)F)c1 (centres unmarked) [Example I-007],100,–
C[C@H](NC(=O)c1cc(Cl)cc(C(F)(F)F)c1)c1ncnn1-c1ncc(Cl)cc1F [Example I-013],–,90

# Source: patent US12171229B2, “Heteroaryl-triazole and heteroaryl-tetrazole compounds as pesticides” (BAYER AKTIENGESELLSCHAFT, priority 2018, dated 2024)
